Laboratory results taken from paper PMC5397323 (Biopharmaceutics & drug disposition, 2017).

How the values were obtained:
OATP2B1 [1] = target: T1, OATP2B1 (Homo sapiens, UniProt O94956); test: Inhibition of OATP2B1-mediated estrone 3-sulfate uptake in MDCKII-OATP2B1 cells; assay type: cell-based; settings: 0 to 316 μM
T1 sequence (O94956 1-709): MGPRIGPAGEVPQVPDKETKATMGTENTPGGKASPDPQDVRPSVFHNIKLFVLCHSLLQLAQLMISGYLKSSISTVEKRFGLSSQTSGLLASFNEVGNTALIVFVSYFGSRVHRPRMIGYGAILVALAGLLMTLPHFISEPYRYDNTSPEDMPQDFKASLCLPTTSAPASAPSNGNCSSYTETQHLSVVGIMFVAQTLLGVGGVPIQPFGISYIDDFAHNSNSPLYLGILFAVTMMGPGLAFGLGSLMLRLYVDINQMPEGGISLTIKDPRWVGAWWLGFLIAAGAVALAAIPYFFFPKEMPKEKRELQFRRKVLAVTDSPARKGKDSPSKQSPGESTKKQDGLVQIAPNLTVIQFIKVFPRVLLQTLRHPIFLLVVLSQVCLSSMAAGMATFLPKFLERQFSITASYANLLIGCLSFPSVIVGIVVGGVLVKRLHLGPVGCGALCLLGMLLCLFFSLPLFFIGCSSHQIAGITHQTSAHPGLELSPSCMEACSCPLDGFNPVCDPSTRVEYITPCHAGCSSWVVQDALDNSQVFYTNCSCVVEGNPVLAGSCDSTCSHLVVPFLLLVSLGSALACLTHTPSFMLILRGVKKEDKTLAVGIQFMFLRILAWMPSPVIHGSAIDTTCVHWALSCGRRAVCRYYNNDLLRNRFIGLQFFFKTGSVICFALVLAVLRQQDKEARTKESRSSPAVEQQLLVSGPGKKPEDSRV

OATP2B1 [2] = target: T1, OATP2B1; settings: OATP2B1-overexpressing Xenopus laevis oocytes; cited from earlier work

For `COc1ccc([C@@H]2CC(=O)c3c(O)cc(O[C@@H]4O[C@H](CO[C@@H]5O[C@@H](C)[C@H](O)[C@@H](O)[C@H]5O)[C@@H](O)[C@H](O)[C@H]4O)cc3O2)cc1O` [Hesperidin, hesperidin], the “inhibition at the concentrations tested” value (OATP2B1 [1]) is given as “no inhibition” and the IC50 (OATP2B1 [2]) is given as 1920 nM.
